{
  "source": "patent US20100311748A1",
  "about": "“HETEROCYCLIC AMIDES USEFUL FOR THE TREATMENT OF CANCER AND PSORIASIS” (ASTRAZENECA AB, priority 2007, published 2010)",
  "tested_on": "Hedgehog pathway",
  "assay": "Hedgehog Pathway Cellular Differentiation Assay (alkaline phosphatase production in C3H10T1/2 cells with Shh ligand)",
  "format": "cell-based",
  "settings": "Mus musculus, 72 h; for inhibition at 3 µM: C3H 10T1/2, 3 μM compound, Shh ligand conditioned media, alkaline phosphatase",
  "experimental": "Hedgehog Pathway Cellular Differentiation Assay The ability of compounds of the invention to inhibit the Hedgehog pathway can be determined by the following cell differentiation assay. C3H10T1/2 cells were plated into 384 well plates at a concentration of 5000 cells/well in DMEM/10% FBS. The following day the media was changed to 20% conditioned media (low serum media DMEM/2% FBS+Shh ligand). Compounds were solubilized in 100% DMSO to a concentration of 10 mM and then serially diluted three fold in 100% DMSO. The highest concentration in the cell plate was 30 μM and the lowest was 3 nM. The compounds were then added to the cells. Cell plates were incubated with the compound for 72 h and then assayed for alkaline phosphatase production using pNp as a substrate. Briefly, after 72 h of incubation, the media was aspirated from the cells and washed with 30 μl of PBS. PBS was aspirated off the cells and 15 μl of 1×RIPA cell lysis buffer is added on to the cells. The cell plates are then incubated at −80° C. for 30 minutes to insure proper cell lysis. The plates were then thawed back to RT. The substrate solution containing pNp at 1 mg/mL in diethanolamine buffer pH 9.8 was then added onto the lysed cells. The plates were incubated at 30° C. for color development and read at an absorbance of 405 nm. The percent inhibition and IC50 value was then calculated from the absorbance data using standard procedures.",
  "note": "pIC50: −log10 of the molar value.",
  "data": [
    {"smiles": "Cc1ccc(-c2[nH]cnc2C)cc1NC(=O)c1ccc(OCc2ccccn2)cc1", "note": "[Example 27, N-[2-methyl-5-(4-methyl-1H-imidazol-5-yl)phenyl]-4-(pyridin-2-ylmethoxy)benzamide]", "values": [
      {"measurement": "inhibition at 3 µM", "value": 76.6, "unit": "%"}
    ]},
    {"smiles": "Cc1ccc(-c2ncc[nH]2)cc1NC(=O)c1ccc(C(F)(F)F)nc1", "note": "[Example 150, N-[5-(1H-imidazol-2-yl)-2-methyl-phenyl]-6-(trifluoromethyl)pyridine-3-carboxamide]", "values": [
      {"measurement": "inhibition at 3 µM", "value": 19.4, "unit": "%"}
    ]},
    {"smiles": "Cc1ccc(-c2ncc[nH]2)cc1NC(=O)c1ccc(OCc2ccc(N3CCOCC3)cn2)cc1", "note": "[Example 139, N-(5-(1H-imidazol-2-yl)-2-methylphenyl)-4-((5-morpholinopyridin-2-yl)methoxy)benzamide]", "values": [
      {"measurement": "inhibition at 3 µM", "value": 84.1, "unit": "%"}
    ]},
    {"smiles": "Cc1ccc(-c2ncc[nH]2)cc1NC(=O)c1ccc(OCC2CCCCN2)cc1", "note": "(centres unmarked) [Example 142, N-(5-(1H-imidazol-2-yl)-2-methylphenyl)-4-(piperidin-2-ylmethoxy)benzamide]", "values": [
      {"measurement": "inhibition at 3 µM", "value": 31.3, "unit": "%"}
    ]},
    {"smiles": "COc1cc(COc2ccc(C(=O)Nc3cc(-c4ncc[nH]4)ccc3C)cc2)cc(OC)c1", "note": "[Example 47, 4-[(3,5-dimethoxyphenyl)methoxy]-N-[5-(1H-imidazol-2-yl)-2-methyl-phenyl]benzamide]", "values": [
      {"measurement": "inhibition at 3 µM", "value": 80.9, "unit": "%"}
    ]},
    {"smiles": "Cc1ccc(-c2ncc[nH]2)cc1NC(=O)c1ccc(OCc2cccc(OCCN(C)C)n2)cc1", "note": "[Example 124, N-(5-(1H-imidazol-2-yl)-2-methylphenyl)-4-((6-(2-(dimethylamino)ethoxy)pyridin-2-yl)methoxy)benzamide]", "values": [
      {"measurement": "inhibition at 3 µM", "value": 46.8, "unit": "%"}
    ]},
    {"smiles": "Cc1ccc(-c2ncc[nH]2)cc1NC(=O)c1ccc(NCc2ccc(N3CCOCC3)cn2)cc1", "note": "[Example 140, N-(5-(1H-imidazol-2-yl)-2-methylphenyl)-4-((5-morpholinopyridin-2-yl)methylamino)benzamide]", "values": [
      {"measurement": "inhibition at 3 µM", "value": 85.5, "unit": "%"}
    ]},
    {"smiles": "Cc1cn(C)c(-c2ccc(C)c(NC(=O)c3ccc(OCc4ccccn4)cc3)c2)n1", "note": "[Example 26, N-[5-(1,4-dimethyl-1H-imidazol-2-yl)-2-methylphenyl]-4-(pyridin-2-ylmethoxy)benzamide]", "values": [
      {"measurement": "inhibition at 3 µM", "value": 75.7, "unit": "%"}
    ]},
    {"smiles": "Cc1ccc(-c2cn3ccsc3n2)cc1NC(=O)c1ccc(OCc2ccccn2)cc1", "note": "[Example 5, N-[2-methyl-5-(4-thia-1,6-diazabicyclo[3.3.0]octa-2,5,7-trien-7-yl)phenyl]-4-(pyridin-2-ylmethoxy)benzamide]", "values": [
      {"measurement": "inhibition at 3 µM", "value": 68.8, "unit": "%"}
    ]},
    {"smiles": "COc1ccc(C(=O)Nc2cc(-c3ncc[nH]3)ccc2C)cc1OC", "note": "[Example 154, N-[5-(1H-imidazol-2-yl)-2-methyl-phenyl]-3,4-dimethoxy-benzamide]", "values": [
      {"measurement": "inhibition at 3 µM", "value": 17.6, "unit": "%"}
    ]},
    {"smiles": "Cc1ccc(-c2nccn2C)cc1NC(=O)c1ccc(OCc2cc(Oc3ccccc3)ccn2)cc1", "note": "[Example 96, N-[2-methyl-5-(1-methyl-1H-imidazol-2-yl)phenyl]-4-[(4-phenoxypyridin-2-yl)methoxy]benzamide]", "values": [
      {"measurement": "inhibition at 3 µM", "value": 79.8, "unit": "%"}
    ]},
    {"smiles": "COc1cccc(COc2ccc(C(=O)Nc3cc(-c4ncc[nH]4)ccc3C)cc2)n1", "note": "[Example 123, N-(5-(1H-imidazol-2-yl)-2-methylphenyl)-4-((6-methoxypyridin-2-yl)methoxy)benzamide]", "values": [
      {"measurement": "inhibition at 3 µM", "value": 84.7, "unit": "%"}
    ]},
    {"smiles": "Cc1cc(C)c(-c2ncc(C)n2C)cc1NC(=O)c1ccc(OCc2ccccn2)cc1", "note": "[Example 69, N-[5-(1,5-dimethyl-1H-imidazol-2-yl)-2,4-dimethylphenyl]-4-(pyridin-2-ylmethoxy)benzamide]", "values": [
      {"measurement": "inhibition at 3 µM", "value": 83.9, "unit": "%"}
    ]},
    {"smiles": "Cc1cc(C)c(-c2nc3ccccc3[nH]2)cc1NC(=O)c1ccc(OCc2ccccn2)cc1", "note": "[Example 68, N-[5-(1H-benzimidazol-2-yl)-2,4-dimethylphenyl]-4-(pyridin-2-ylmethoxy)benzamide]", "values": [
      {"measurement": "inhibition at 3 µM", "value": 83.3, "unit": "%"}
    ]},
    {"smiles": "Cc1ccc(-c2nccn2C)cc1NC(=O)c1ccc(OCc2ccccn2)cc1", "note": "[Example 13, N-[2-methyl-5-(1-methylimidazol-2-yl)phenyl]-4-(pyridin-2-ylmethoxy)benzamide]", "values": [
      {"measurement": "inhibition at 3 µM", "value": 64.9, "unit": "%"}
    ]},
    {"smiles": "Cc1ccc(-c2ncn(C)c2CO)cc1NC(=O)c1ccc(OCc2ccccn2)cc1", "note": "[Example 78, N-{5-[5-(hydroxymethyl)-1-methyl-1H-imidazol-4-yl]-2-methylphenyl}-4-(pyridin-2-ylmethoxy)benzamide]", "values": [
      {"measurement": "inhibition at 3 µM", "value": 75.1, "unit": "%"}
    ]},
    {"smiles": "Cc1ccc(-c2ncc[nH]2)cc1NC(=O)c1ccc(OCc2ccccn2)cc1", "note": "[Example 29, N-[5-(1H-imidazol-2-yl)-2-methyl-phenyl]-4-(pyridin-2-ylmethoxy)benzamide]", "values": [
      {"measurement": "inhibition at 3 µM", "value": 75.3, "unit": "%"}
    ]},
    {"smiles": "Cc1ccc(-c2ccccn2)cc1NC(=O)c1ccc(OCc2ccccn2)cc1", "note": "[Example 9, N-(2-methyl-5-pyridin-2-yl-phenyl)-4-(pyridin-2-ylmethoxy)benzamide]", "values": [
      {"measurement": "inhibition at 3 µM", "value": 60.5, "unit": "%"},
      {"measurement": "pIC50", "setting": "C3H 10T1/2, Shh ligand conditioned media, alkaline phosphatase (pNp, 405 nm)", "value": 6.92}
    ]},
    {"smiles": "COc1ccnc(COc2ccc(C(=O)Nc3cc(-c4ncc[nH]4)ccc3C)cc2)c1OC", "note": "[Example 56, 4-[(3,4-dimethoxypyridin-2-yl)methoxy]-N-[5-(1H-imidazol-2-yl)-2-methylphenyl]benzamide]", "values": [
      {"measurement": "inhibition at 3 µM", "value": 67.4, "unit": "%"}
    ]},
    {"smiles": "Cc1ccc(-c2ncc[nH]2)cc1NC(=O)c1ccc(OCC2CCCCN2C)cc1", "note": "(centres unmarked) [Example 143, N-(5-(1H-imidazol-2-yl)-2-methylphenyl)-4-((1-methylpiperidin-2-yl)methoxy)benzamide]", "values": [
      {"measurement": "inhibition at 3 µM", "value": 62.3, "unit": "%"}
    ]},
    {"smiles": "O=C(Nc1cc(-c2nc3ccccc3[nH]2)ccc1Cl)c1ccc(OCc2ccccn2)cc1", "note": "[Example 106, N-[5-(1H-benzimidazol-2-yl)-2-chlorophenyl]-4-(pyridin-2-ylmethoxy)benzamide]", "values": [
      {"measurement": "inhibition at 3 µM", "value": 81.6, "unit": "%"}
    ]},
    {"smiles": "Cc1ccc(-c2ncc[nH]2)cc1NC(=O)c1ccc(OCc2ccccc2C(F)(F)F)cc1", "note": "[Example 64, N-[5-(1H-imidazol-2-yl)-2-methylphenyl]-4-{[2-(trifluoromethyl)benzyl]oxy}benzamide]", "values": [
      {"measurement": "inhibition at 3 µM", "value": 79.6, "unit": "%"}
    ]},
    {"smiles": "Cc1ccc(-c2ncc[nH]2)cc1NC(=O)c1ccc(OCc2cc(N(C)C)ccn2)cc1", "note": "[Example 127, 4-{[4-(dimethylamino)pyridin-2-yl]methoxy}-N-[5-(1H-imidazol-2-yl)-2-methylphenyl]benzamide]", "values": [
      {"measurement": "inhibition at 3 µM", "value": 76.3, "unit": "%"}
    ]},
    {"smiles": "Cc1ccc(-c2ncc(CN3CCN(C)CC3)s2)cc1NC(=O)c1ccc(OCc2ccccn2)cc1", "note": "[Example 2, N-[2-methyl-5-[5-[(4-methylpiperazin-1-yl)methyl]1,3-thiazol-2-yl]phenyl]-4-(pyridin-2-ylmethoxy)benzamide]", "values": [
      {"measurement": "inhibition at 3 µM", "value": 72.3, "unit": "%"}
    ]},
    {"smiles": "Cc1ccc(-c2ncc[nH]2)cc1NC(=O)c1ccc(OCc2ncccc2N2CCOCC2)cc1", "note": "[Example 137, N-(5-(1H-imidazol-2-yl)-2-methylphenyl)-4-((3-morpholinopyridin-2-yl)methoxy)benzamide]", "values": [
      {"measurement": "inhibition at 3 µM", "value": 76.5, "unit": "%"}
    ]},
    {"smiles": "Cc1ccc(-c2ncc[nH]2)cc1NC(=O)c1ccc(OCc2ccc(N3CCN(C)CC3)cn2)cc1", "note": "[Example 155, N-[5-(1H-imidazol-2-yl)-2-methylphenyl]-4-{[5-(4-methylpiperazin-1-yl)pyridin-2-yl]methoxy}benzamide]", "values": [
      {"measurement": "inhibition at 3 µM", "value": 83.3, "unit": "%"}
    ]},
    {"smiles": "Cc1ccc(-c2cn(C)c(C)n2)cc1NC(=O)c1ccc(OCc2ccccn2)cc1", "note": "[Example 156, N-[5-(1,2-dimethyl-1H-imidazol-4-yl)-2-methylphenyl]-4-(pyridin-2-ylmethoxy)benzamide]", "values": [
      {"measurement": "inhibition at 3 µM", "value": 86.2, "unit": "%"}
    ]},
    {"smiles": "Cc1ccc(-c2ncc[nH]2)cc1NC(=O)c1ccc(Oc2ccccc2)nc1", "note": "[Example 145, N-[5-(1H-imidazol-2-yl)-2-methyl-phenyl]-6-phenoxy-pyridine-3-carboxamide]", "values": [
      {"measurement": "inhibition at 3 µM", "value": 67.1, "unit": "%"}
    ]}
  ]
}
